Assay [1] concerns the target T1, TgTR (TgPKS2 thioester reductase domain) (Toxoplasma gondii, UniProt Z9O203Q0F3).
T1 construct: isolated C-terminal thioester reductase (TR) domain of TgPKS2; E. coli codon optimized, expressed in E. coli BL21(DE3) with GroES/EL-TF chaperones
Kind of assay: thermal shift assay (SYPRO orange). Type of assay: binding. To be noted: 1 mM compound, 3 µM TgTR, 10 mM Tris-HCl pH 8.0, 50 mM NaCl, 5% glycerol.

In assay [2] the target is T1, TgTR (TgPKS2 thioester reductase domain). The assay is described as follows: isothermal titration calorimetry. In kind it is binding. To be noted: 25 mM Tris-HCl pH 7.6, 25 mM NaCl, N fixed at 1.
Assay [3] relates to TgTR (TgPKS2 thioester reductase domain). Particulars: saturating octanal (2.5 mM) and NADH; N147T in domain numbering.

For `NC(=O)C1=CN([C@@H]2O[C@H](COP(=O)(O)OP(=O)(O)OC[C@H]3O[C@@H](n4cnc5c(N)ncnc54)[C@H](O)[C@@H]3O)[C@@H](O)[C@H]2O)C=CC1` [NADH], in assay [1], the Tm shift result was “NADH, octanoyl-CoA, and octanal increased the TgTR Tm compared to the DMSO control”. In assay [2] (no other ligand), this molecule showed a Kd of 7.64 ± 0.59 µM.

With `CCCCCCCC=O` [octanal], in assay [3], the “NADH fluorescence consumption assay, single-point relative rate” value was “no significant change was observed with octanal”. In assay [1], the Tm shift result is “NADH, octanoyl-CoA, and octanal increased the TgTR Tm compared to the DMSO control”. Also, binding in assay [2] (excess NADH (1 mM)) was characterised by a dissociation constant (Kd) of 146 ± 31 µM.

As to `CCCCCCCC(=O)SCCNC(=O)CCNC(=O)[C@H](O)C(C)(C)COP(=O)(O)OP(=O)(O)OC[C@H]1O[C@@H](n2cnc3c(N)ncnc32)[C@H](O)[C@@H]1OP(=O)(O)O` [octanoyl-CoA], in assay [1], the Tm shift result is “NADH, octanoyl-CoA, and octanal increased the TgTR Tm compared to the DMSO control”. Also, the Kd in assay [2] (excess NADH (1 mM)) turned out to be 89.6 ± 3.9 µM.

(Values after publication doi:10.1101/2023.05.23.541938v1, “Exploring the Chain Release Mechanism from an Atypical Apicomplexan Polyketide Synthase” (biorxiv, 2023).)
